In paper PMC7409302 (Cancers, 2020):

Biological target: T1, androgen receptor (AR) (Homo sapiens, UniProt P10275, T878A)
T1 construct: endogenous full-length AR in LNCaP cells
T1 sequence (P10275 1-920 T878A): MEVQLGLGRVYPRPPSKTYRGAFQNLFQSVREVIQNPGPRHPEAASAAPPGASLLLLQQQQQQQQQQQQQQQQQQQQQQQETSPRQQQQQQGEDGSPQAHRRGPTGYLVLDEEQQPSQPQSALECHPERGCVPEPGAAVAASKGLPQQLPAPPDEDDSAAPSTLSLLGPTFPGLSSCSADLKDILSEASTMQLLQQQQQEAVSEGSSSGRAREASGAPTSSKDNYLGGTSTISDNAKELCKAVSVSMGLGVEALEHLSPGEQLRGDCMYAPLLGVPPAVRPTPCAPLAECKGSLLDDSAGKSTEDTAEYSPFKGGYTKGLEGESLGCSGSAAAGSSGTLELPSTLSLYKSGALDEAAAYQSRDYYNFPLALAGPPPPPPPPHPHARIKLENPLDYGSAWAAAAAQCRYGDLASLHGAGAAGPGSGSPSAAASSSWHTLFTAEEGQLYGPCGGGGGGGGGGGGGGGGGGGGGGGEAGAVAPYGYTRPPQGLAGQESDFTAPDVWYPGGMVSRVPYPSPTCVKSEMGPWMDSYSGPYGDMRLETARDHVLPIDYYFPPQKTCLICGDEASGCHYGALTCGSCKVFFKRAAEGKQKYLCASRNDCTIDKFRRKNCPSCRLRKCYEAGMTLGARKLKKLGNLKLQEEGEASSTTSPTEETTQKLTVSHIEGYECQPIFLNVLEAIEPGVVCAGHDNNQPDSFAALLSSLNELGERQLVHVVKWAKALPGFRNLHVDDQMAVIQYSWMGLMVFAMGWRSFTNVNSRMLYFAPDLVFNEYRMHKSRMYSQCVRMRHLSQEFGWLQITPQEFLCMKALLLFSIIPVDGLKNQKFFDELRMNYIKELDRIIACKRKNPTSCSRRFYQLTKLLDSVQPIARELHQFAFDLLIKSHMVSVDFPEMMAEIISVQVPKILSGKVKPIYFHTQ
Experiment: androgen (R1881)-induced PSA([…].1kb)-luciferase reporter in LNCaP cells
Assay type: cell-based

IC50: 1080 ± 550 nM
Structure (SMILES): CC(C)(c1ccc(OC[C@H](O)CNS(C)(=O)=O)cc1)c1cc(Cl)c(OC[C@H](O)CCl)c(Cl)c1 [EPI-7170]
